Experimental data as given in patent US9187486B2 (AMGEN INC., priority 2011, dated 2015).
pIC50: −log10 of the molar value. Like-named read-outs stand apart in the source and are kept apart here. Each block holds one compound with its values, some of them ahead of it.

How the values were obtained:
[1] = system: KMS-12-BM myeloma cell line; assay: Pim cell assay: phospho-BAD (S112) and total BAD in KMS-12-BM cells; format: cell-based; conditions: 1 hour and 50 minutes incubation, read-out: KMS-12-BM IC50 IP
Description: The KMS-12-BM myeloma cell line was used to determine the in vitro cellular inhibition of Pim kinases. Disruption of Pim signaling by Pim inhibitors was determined by measuring the levels of phospho-BAD (S112) and total BAD. […] The cells were then incubated overnight at 37° C., 5% CO2. […] In addition to the 10-point dosing curve of the test compound, DMSO alone was run as a control. This dilution in DMSO was then diluted again into cell growth medium. Aliquots (11.1 uL) of the compound diluted in growth medium were then transferred to the appropriate wells of the 96-well plates containing cells to yield a final DMSO concentration of 0.3%. The cell plates were then incubated with compound for 1 hour and 50 minutes at 37° C., 5% CO2. After the 1 hour and 50 min incubation, the cell plates were spun at 1000 RPM for 10 minutes and the compound-containing medium was removed. […] The cell plates containing lysis buffer were then immediately stored at −70° C. These prepared lysates were then assayed for phospho-(S112) and total-BAD according to the manufacturer's protocol (Meso Scale Diagnostics, Cat # K15103D-3). The plates were read on the MSD Sector Imager 6000, and results were calculated according to the assay protocol: ((% Phosphoprotein=((2×Phospho signal)/(Phospho signal+Total signal))×100)).

Pim-1 = Pim-1 (Homo sapiens (Human), UniProt P11309); assay: Pim enzyme assay (HTRF, phosphorylation of biotinylated-BAD (S112) peptide), Pim-1; format: biochemical; conditions: full length recombinant Pim-1, biotinylated-BAD (S112) peptide, HTRF
Text: (§1) Full-length human cDNAs encoding Pim-1 (MGC ID 3913552) or Pim-2 (IMAGE ID 5092935) were purchased from Invitrogen, Carlsbad, Calif. These cDNAs were used as templates in PCR reactions to produce full-length DNA clones of the PIMs. Oligonucleotide PCR primers for Pim-1 were 5′-[…]-3′ and 5′-[…]-3′. Oligonucleotide PCR primers for Pim-2 were 5′-[…]-3′ and 5′-[…]-3′. PCR products were digested with BclI and EcoRI for Pim-1 and BamHI and EcoRI for Pim-2 and ligated into a modified baculovirus transfer vector (pFastBac 1) cleaved with BamHI and EcoRI. For bacterial expression, the same cleaved PCR products encoding Pim-1 or Pim-2 were ligated into a modified E. coli expression vector pET28(a) cleaved with BamHI and EcoRI. Amino-terminal hexahistidine tags followed by a thrombin cleavage site were previously added to the vectors using standard methods of molecular biology. Recombinant baculoviruses expressing Pim-1 or Pim-2 were made using standard methods (Fastbac manual, Invitrogen, Carlsbad, Calif.). Infection of Sf9 cells was done at an m.o.i. of greater than 5 for 24-48 h. Cells were harvested by centrifugation and frozen at −80 C. For E. coli expression, cells carrying pET28-His6-Th-Pim-1 or pET28-His6-Th-Pim-2 were picked from a single colony and grown o/n in LB media. The o/n culture was used to inoculate a 2 liter flask with 500 mL media. This was grown o/n and used to inoculate 15-20 liters of Terrific Broth in a New Brunswick Scientific fermentor. The E. coli were grown at 37° C. to and OD600>1.6. The temperature was dropped to 18° C. and o/n expression was induced with 0.5 mM IPTG. Cells were harvested by centrifugation and frozen at −80° C.
(§2) The frozen cell pellets were thawed by stirring in chilled lysis buffer (0.05 M HEPES, pH 8.0, 0.25 M NaCl, 0.01 M 2-mercaptoethanol, 10% (w/v) glycerol, 0.5% (v/v) protease inhibitor cocktail (Sigma P-8340) at a ratio of 1 L/200 g cells until homogeneous. The thawed suspension was applied to a microfluidizer at 10,000 PSI to disrupt the cells and the whole lysates were clarified by centrifugation at 50,000×g for 90 min, 4° C. Imidazole was added to the clarified lysate to a final concentration of 2.5 mM and the lysate was mixed with 10 mL of Talon resin (Clontech) and the slurry rocked gently overnight at 4° C. The slurry was centrifuged at 1,000×g for 5 min, the supernatant decanted, and the resin suspended in 40 mL of lysis wash buffer (lysis buffer at 0.75 M NaCl). This step was repeated 3× and the resin was transferred to a 2.5 cm glass column. Ten column volumes of wash buffer (0.05 M HEPES, pH 8.0, 0.1 M NaCl, 0.01 M 2-mercaptoethanol, 10% (w/v) glycerol) were applied to the resin followed by 10 column volumes of elution buffer (0.05 M HEPES, pH 8.0, 0.25 M NaCl, 0.01 M 2-mercaptoethanol, 10% (w/v) glycerol, 0.1 M imidazole). Fractions were analyzed by SDS-PAGE and those containing the protein of interest were pooled and concentrated. The concentrated protein was applied to an Amersham Superdex 75 (XK 26/60) column equilibrated in 0.025 M Tris-HCl, pH 7.5, 0.1 M NaCl, 0.01 M 2-mercaptoethanol, 10% (w/v) glycerol. […] Fractions containing the monomeric protein of interest were pooled, concentrated to ˜2 mg/mL, and stored at −80° C.
(§3) The phosphorylation of biotinylated-BAD (S112) peptide by full length recombinant Pim-1, Pim-2, or Pim-3 protein was detected with streptavidin:Allophycocyanin (APC) conjugate and a europium (Eu) labeled antibody directed against phosphorylated-BAD (S112). Excitation of Eu by a high energy laser light (337 nm) leads to a transfer of energy to the APC molecule, and results in an emission at 665 nm. The fluorescence is directly proportional to the amount of phosphorylated BAD peptide present in the reaction.

Pim-2 = Pim-2 (Homo sapiens (Human), UniProt Q9P1W9); assay: Pim enzyme assay (HTRF, phosphorylation of biotinylated-BAD (S112) peptide), Pim-2; format: biochemical; conditions: full length recombinant Pim-2, biotinylated-BAD (S112) peptide, HTRF
Text: as §1, §2, §3

[2] = 96-well, read-out: Pim-1 IC50 IP
[3] = 96-well, read-out: Pim-2 IC50 IP

Chain of Pim-2 (Q9P1W9 whole entry): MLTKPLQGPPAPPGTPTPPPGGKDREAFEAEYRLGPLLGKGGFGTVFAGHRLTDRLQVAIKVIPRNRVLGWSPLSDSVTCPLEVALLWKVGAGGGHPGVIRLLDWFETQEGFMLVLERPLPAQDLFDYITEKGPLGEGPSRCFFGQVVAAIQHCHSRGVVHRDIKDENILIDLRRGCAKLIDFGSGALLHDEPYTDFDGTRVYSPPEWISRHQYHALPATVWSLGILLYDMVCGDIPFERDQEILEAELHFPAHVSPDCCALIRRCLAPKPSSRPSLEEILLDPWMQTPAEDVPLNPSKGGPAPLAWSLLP
Chain of Pim-1 (P11309 whole entry): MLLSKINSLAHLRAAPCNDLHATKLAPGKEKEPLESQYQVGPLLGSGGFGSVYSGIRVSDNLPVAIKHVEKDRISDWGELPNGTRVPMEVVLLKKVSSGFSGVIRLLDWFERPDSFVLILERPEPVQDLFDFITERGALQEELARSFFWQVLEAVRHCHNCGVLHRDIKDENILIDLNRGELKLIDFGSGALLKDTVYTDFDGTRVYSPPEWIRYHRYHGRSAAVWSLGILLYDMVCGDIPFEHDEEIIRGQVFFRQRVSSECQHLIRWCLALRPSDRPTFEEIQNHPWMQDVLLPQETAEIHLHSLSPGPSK

Structure (SMILES): C[C@@H]1C[C@H](N)CN(c2ccncc2Nc2ncc3ccc(-c4c(F)cccc4F)nn23)C1 (single isomer, unassigned) [Example 38, N-(4-((cis)-3-amino-5-methylpiperidin-1-yl)pyridin-3-yl)-2-(2,6-difluorophenyl)imidazo[1,5-b]pyridazin-7-amine]
- pIC50 [1]: 7.56

Structure (SMILES): N[C@@H]1CN(c2ccncc2Nc2ncc3ccc(-c4c(F)cccc4F)nn23)CC[C@H]1F (racemic) [Example 43, rac-N-(4-(trans-3-amino-4-fluoropiperidin-1-yl)pyridin-3-yl)-2-(2,6-difluorophenyl)imidazo[1,5-b]pyridazin-7-amine]
- pIC50 ([1]; Homo sapiens, KMS-12-BM): 6.33

Structure (SMILES): C[C@H]1CN(c2ccncc2Nc2ncc3ccc(-c4c(F)cccc4F)nn23)[C@@H](C)CN1 [Example 49, 2-(2,6-difluorophenyl)-N-(4-((2S,5S)-2,5-dimethylpiperazin-1-yl)pyridin-3-yl)imidazo[1,5-b]pyridazin-7-amine]
- pIC50 ([1]; Homo sapiens, KMS-12-BM): 4.92

Structure (SMILES): N[C@@H]1CN(c2ccncc2Nc2ncc3ccc(-c4c(F)cccc4F)nn23)CC[C@H]1F (single isomer, unassigned) [Example 45, N-(4-(trans-3-amino-4-fluoropiperidin-1-yl)pyridin-3-yl)-2-(2,6-difluorophenyl)imidazo[1,5-b]pyridazin-7-amine]
- pIC50 [1]: 5.97

Structure (SMILES): C[C@@H]1C[C@H](N)CN(c2ccncc2Nc2ncc3ccc(-c4c(F)cccc4F)nn23)C1 (racemic) [Example 37, rac-N-(4-((cis)-3-amino-5-methylpiperidin-1-yl)pyridin-3-yl)-2-(2,6-difluorophenyl)imidazo[1,5-b]pyridazin-7-amine tris(2,2,2-trifluoroacetate)]
- pIC50 ([1]; Homo sapiens, KMS-12-BM): 7.02

Structure (SMILES): C[C@@H]1C[C@H](N)CN(c2ccncc2Nc2ncc3ccc(-c4c(F)cccc4F)nn23)C1 (single isomer, unassigned) [Example 39, N-(4-((cis)-3-amino-5-methylpiperidin-1-yl)pyridin-3-yl)-2-(2,6-difluorophenyl)imidazo[1,5-b]pyridazin-7-amine]
- pIC50 [1]: 5.76

Structure (SMILES): N[C@H]1CCN(c2ccncc2Nc2ncc3ccc(-c4c(F)cccc4F)nn23)C1 [Example 13, N-(4-((3S)-3-amino-1-pyrrolidinyl)-3-pyridinyl)-2-(2,6-difluorophenyl)imidazo[1,5-b]pyridazin-7-amine bis(2,2,2-trifluoroacetate)]
- pIC50 (Pim-2; read-out: Pim2_IC50): < 6.00
- pIC50 (Pim-1; read-out: Pim_1_IC50): 6.25

Next, values leading:

- pIC50 ([1]; Homo sapiens, KMS-12-BM): 6.44
Structure (SMILES): C[C@H]1CC[C@H](N)CN1c1ccncc1Nc1ncc2ccc(-c3ncccc3F)nn12 (single isomer, unassigned) [Example 97, N-(4-((trans)-5-amino-2-methylpiperidin-1-yl)pyridin-3-yl)-2-(3-fluoropyridin-2-yl)imidazo[1,5-b]pyridazin-7-amine tris(2,2,2-trifluoroacetate)]

- pIC50 (Pim-1; [2]): 8.96
- pIC50 ([1]; Homo sapiens, KMS-12-BM): 5.96
Structure (SMILES): N[C@@H]1C=C(c2ccncc2Nc2ncc3ccc(-c4c(F)cccc4F)nn23)CCC1 (single isomer, unassigned) [Example 83, N-(4-(3-aminocyclohex-1-en-1-yl)pyridin-3-yl)-2-(2,6-difluorophenyl)imidazo[1,5-b]pyridazin-7-amine tris(2,2,2-trifluoroacetate)]

- pIC50 ([1]; tris(2,2,2-trifluoroacetate)): 5.01
Structure (SMILES): C[C@H]1CC[C@H](N)CN1c1ccncc1Nc1ncc2ccc(-c3c(F)cccc3F)nn12 (single isomer, unassigned) [Example 88, N-(4-(5-amino-2-methylpiperidin-1-yl)pyridin-3-yl)-2-(2,6-difluorophenyl)imidazo[1,5-b]pyridazin-7-amine tris(2,2,2-trifluoroacetate)]

- pIC50 (Pim-2; [3]): 7.81
- pIC50 ([1]; Homo sapiens, KMS-12-BM): 5.59
Structure (SMILES): N[C@@H]1C=C(c2ccncc2Nc2ncc3ccc(-c4c(F)cccc4F)nn23)CC[C@H]1F (racemic) [Example 93, (2,2,2-trifluoroacetate)]

- pIC50 ([1]; Homo sapiens, KMS-12-BM): < 4.80
Structure (SMILES): C[C@@H]1CN(c2ccncc2Nc2ncc3ccc(-c4c(F)cccc4F)nn23)[C@@H](C)CN1 (single isomer, unassigned) [Example 52, 2-(2,6-difluorophenyl)-N-(4-((trans)-2,5-dimethyl-1-piperazinyl)-3-pyridinyl)imidazo[1,5-b]pyridazin-7-amine]

- pIC50 ([1]; tris(2,2,2-trifluoroacetate)): 4.85
Structure (SMILES): C[C@H]1CC[C@@H](N)CN1c1ccncc1Nc1ncc2ccc(-c3ncccc3F)nn12 (single isomer, unassigned) [Example 94, N-(4-((cis)-5-amino-2-methylpiperidin-1-yl)pyridin-3-yl)-2-(3-fluoropyridin-2-yl)imidazo[1,5-b]pyridazin-7-amine tris(2,2,2-trifluoroacetate)]

- pIC50 ([1]; tris(2,2,2-trifluoroacetate)): 7.31
Structure (SMILES): C[C@H]1CC[C@H](N)CN1c1ccncc1Nc1ncc2ccc(-c3c(F)cccc3F)nn12 (single isomer, unassigned) [Example 87, N-(4-(5-amino-2-methylpiperidin-1-yl)pyridin-3-yl)-2-(2,6-difluorophenyl)imidazo[1,5-b]pyridazin-7-amine tris(2,2,2-trifluoroacetate)]

- pIC50 (Pim-1; [2]): 8.92
- pIC50 ([1]; Homo sapiens, KMS-12-BM): 5.92
Structure (SMILES): N[C@@H]1C=C(c2ccncc2Nc2ncc3ccc(-c4c(F)cccc4F)nn23)CCC1 (racemic) [Example 82, rac-N-(4-(3-aminocyclohex-1-en-1-yl)pyridin-3-yl)-2-(2,6-difluorophenyl)imidazo[1,5-b]pyridazin-7-amine tris(2,2,2-trifluoroacetate)]

- pIC50 (Pim-2; [3]): 7.51
- pIC50 (Pim-1; [2]): 8.70
Structure (SMILES): CN[C@H]1CCCN(c2ccncc2Nc2ncc3ccc(-c4c(F)cccc4F)nn23)C1 [Example 59, (S)-2-(2,6-difluorophenyl)-N-(4-(3-(methylamino)piperidin-1-yl)pyridin-3-yl)imidazo[1,5-b]pyridazin-7-amine]

- pIC50 (Pim-2; [3]): < 6.00
- pIC50 (Pim-1; [2]): < 6.00
Structure (SMILES): N[C@H]1CCCN(c2cnccc2Nc2ncc3ccc(-c4c(F)cccc4F)nn23)C1 [Example 80, (S)-N-(3-(3-aminopiperidin-1-yl)pyridin-4-yl)-2-(2,6-difluorophenyl)imidazo[1,5-b]pyridazin-7-amine tetra(2,2,2-trifluoroacetate)]
